This is an account of results in US11220516B2, “Nitric oxide-releasing antibiotics, methods of making, and methods of use” (University of Georgia Research Foundation, Inc., priority 2019, dated 2022).

Where two headings read alike, the source gives them in different places.

Data set [1] in a line: NO release from blended CarboSil polymer films over 7 days and NO donor remaining (UV-VIS). Conditions: for NO donor remaining within the CarboSil polymer films: 168 h. Format: physicochemical. The procedure: (§1) Real time NO release was measured using a Sievers 280i NOA (Nitric Oxide Analyzer). Polymer films containing SNAPicillin or SNAP were immersed in amber reaction vessels containing PBS (pH 7.4) with 100 μM EDTA to chelate any metal ion contaminants within the buffer. Solutions were continuously purged with a nitrogen sweep gas and bubbler to carry the NO from the solution directly to the NOA. In a separate NO releasing study, solutions containing 500 μM of either SNAPicillin or SNAP in PBS with EDTA were also tested under physiological conditions to obtain the stabilized NO release profile to compare passive release kinetics.
A separate NO release study was also done by physically blending equimolar amounts into solutions of CarboSil, and solvent casting a thin polymer film to be analyzed. Since polymer films blended with SNAP are a common strategy to create a surface with controlled, localized NO release, a comparison of NO release was done using SNAPicillin containing polymer films to examine its potential as an alternative novel NO donor. The fabricated films were placed in PBS (pH 7.4) containing 0.01 mM EDTA at 37° C. to observe the real time NO releasing kinetics. […] This is contrary to the pure solutions that were previously placed under physiological conditions, where SNAP was able to have a higher initial release. The difference is most likely is due to the leaching rate of either SNAP or SNAPicillin from a hydrophobic polymer matrix.
The amount of NO donor remaining in the films was also quantified using UV-VIS after this time period to examine the potential release beyond the recorded 7 days. […] As mentioned previously, due to the larger molecular weight of SNAPicillin, it was able to stay within the CarboSil matrix for a longer period of time when compared to SNAP blended films. This further emphasizes the versatility of the SNAPicillin donor as a possible RSNO donor substitute for NO releasing polymers that require sustained or controlled release kinetics with the additional antimicrobial functionality.

Data set [2] is described as follows: SNAP leachate from blended CarboSil films in PBS (UV-vis absorbance at 340 nm). Format: physicochemical. The note with it: equimolar blend in CarboSil films, PBS at 37° C., end of 4 day study. The procedure: Leaching of SNAPicillin and SNAP was done by first blending equimolar amounts of the corresponding chemical (33.33 μmol mL^−1) into solutions of CarboSil dissolved in THF (50 mg mL^−1) and subsequently cast into Teflon molds to dry overnight. The dried films were then weighed and measured before being submerged into PBS. Quantification of SNAP leaching into solution was done by measuring absorbance at 340 nm via UV-vis analysis.
(§2) One issue holding back using the direct administration of NO donors as an effective therapeutic is its short half-life. To address this, a common method for controlling and directing the NO release of a donor in a localized and targeted area is to encapsulate it within a polymer. This strategy is also used for antibiotics and antiseptics as well, as catheters have been fabricated with physically blended drugs to combat and prevent infection.^28-30 One key advantage for modifying the ampicillin with SNAP was its change in solubility. A large majority of antibiotics are not soluble in organic solvents, limiting its ability to evenly disperse within polymer matrices when coated or impregnated within the bulk material. […] The polymer films were measured and weighed before being immersed in PBS at 37° C. and were periodically taken out to examine either SNAP or ampicillin leachates (FIGS. 3A-3B). […]

Data set [3] relates to 48 h old preformed S. aureus biofilms. Nature of the data set: Biofilm dispersal assay on CarboSil polymer films. Format: cell-based, Staphylococcus aureus (ATCC 6538). Conditions: for reduction in planktonic bacteria in solution: bacteria shed from 48 h S. aureus biofilm; for inhibition at 500 µM: Staphylococcus aureus, read-out: reduction of viable bacteria adhered on the films (biofilm). How it is done: Biofilms were grown for 48 h on circular CarboSil polymer films fabricated with a surface area of 1 cm^2. Solutions of S. aureus were prepared by placing one colony of bacteria in Luria Broth and incubated at 37° C. until the solution reached approximately 10^6 to 10^8 CFU mL^−1. Each polymer film was suspended in 2 mL of the bacteria solution and the solution was replenished with a fresh bacteria solution at 24 h of incubation. For the duration of the study the samples were incubated on a shaker at 150 rpms. After 48 h, the films were removed from the bacteria solutions and each film was gently rinsed with 5 ml of sterile PBS to remove any planktonic bacteria. The films were next incubated with 1 mL their specified test solutions and each solution type was tested at n=4. Each test solution was prepared with sterilized PBS and calculated to contain either 500 μM of ampicillin, SNAP, or SNAPicillin. After 24 h, the polymer films were removed from the test solutions, gently rinsed with PBS to remove planktonic bacteria, and homogenized in sterile PBS to remove any viable bacteria from the biofilm. The collected bacteria were serially diluted, plated on LB agar, and incubated for 18 h to achieve countable CFUs for comparison. A similar procedure was then done for the planktonic bacteria suspended in the solution of the incubated films to observe viable bacteria that shed from the potentially dispersed biofilms.
While NO release from SNAP may have difficulties diffusing through agar for disk diffusion testing, it is extremely potent at dispersing biofilms. […] The polymer films were then immersed into solutions containing either ampicillin, SNAP, or SNAPicillin at a concentration of 500 μM and the adhered bacteria remaining on the film as well as the planktonic bacteria within the solutions were observed (FIGS. 7 and 8).

Data set [4] in a line: NO release kinetics of 500 μM solutions (Sievers 280i Nitric Oxide Analyzer). Type of data set: physicochemical. The note with it: 500 μM in PBS (pH 7.4) with EDTA, 37° C., 4 h. How it is done:
as §1
The NO release of the synthesized SNAPicillin was compared to pure SNAP by dissolving equimolar (500 μM) amounts of each into separate solutions of PBS (pH 7.4) containing 0.01 mM EDTA and placing them in an amber reaction vial submerged within a water bath at 37° C. while NO release was monitored in real time. Nitrogen gas was used to continuously purge the solution to examine the stabilized, passive release under these conditions. […] Although equimolar amounts of each component were used, the RSNO component on the SNAPicillin appears to be less reactive when compared to pure crystalline SNAP under physiological conditions.

In a further data set the test system is S. aureus. Nature of the data set: Zone of inhibition assay (agar diffusion) of blended CarboSil films. Format: cell-based, Staphylococcus aureus (ATCC 6538). The note with it: 8 mm diameter; for ZOI values against S. aureus: overnight at 37° C. The procedure: Zone of inhibition (ZOI) testing was done on polymer films containing the same composition of either ampicillin, SNAP, or SNAPicillin used in the leachate and NOA studies. A standard agar diffusion protocol was followed and tested against S. aureus. A single colony of bacterium was suspended into LB and incubated at 37° C. for 14 h while being rotated at 150 rpm. The optical density of each bacterial culture was then measured at 600 nm using a UV-Vis spectrophotometer. The observed optical density was adjusted to 1×10^7 colony forming units per mL using a standard calibration curve of each corresponding bacteria. A sterile cotton swab was then used to dip into each culture media and spread onto premade LB-agar petri dishes. The polymer films of either ampicillin, SNAP, SNAPicillin, along with controls (diameter: 8 mm, thickness: 200 μm) were then placed on top of the petri dishes and allowed to incubate overnight at 37° C. The ZOI was then measured and compared the following day to observe the antimicrobial effects of synthesized SNAPicillin molecule within a hydrophobic matrix.
A significant advantage of using targeted antibiotics over NO releasing polymers is seen in its ability to prevent bacteria growth. […] To ensure the SNAP attachment to ampicillin was not interfering with this targeted potency, a zone of inhibition (ZOI) test against S. aureus was done. […] This trend has been seen in the past with NO releasing hydrophobic polymers, where the ZOI is extremely limited beyond the interface of the polymer itself.^32
The characterization of covalent attachment of SNAP was verified through FTIR (Fourier Transform Infrared Spectroscopy) and NMR (Nuclear Magnetic Resonance Spectroscopy) and its NO releasing characteristics were compared to pure, unmodified SNAP. The combination of both NO and ampicillin in one unique compound allows for the dispersal of biofilms while making them more susceptible to the antibiotic moiety. […]
In general terms: Agar diffusion results depend on both activity and mobility in agar.

Another data set deals with biofilms. The note with it: as low as; cited from earlier work.
A short description of data set [5]: Ampicillin leachate from blended CarboSil films in PBS with EDTA (alkaline potassium permanganate oxidation). Type of data set: physicochemical. Conditions: equimolar blend in CarboSil films, PBS at 37° C., 4 days.
Text: Ampicillin eachate from CarboSil films was done by making polymer solutions with equimolar amounts of SNAPicillin and ampicillin. Ampicillin was first dissolve in a small amount of methanol before being added to CarboSil in THF solutions and then solvent casted into Teflon molds. Films were then weighed and immersed in PBS containing EDTA. Quantification of ampicillin leaching into solution was done via the oxidation reaction with alkaline potassium permanganate following a previously established protocol.^24
as §2, with “solubility.” for “solubility. A large majority of antibiotics are not soluble in organic solvents, limiting its ability to evenly disperse within polymer matrices when coated or impregnated within the bulk material.”

The mark [6] stands for this setting: 500 μM solution in PBS, 24 h treatment.
Setting [7] is: 500 μM solution in PBS, 24 h treatment, 48 h S. aureus biofilm.

`CC(=O)N[C@H](C(=O)O)C(C)(C)SN=O` (racemic) [SNAP, S-nitroso-N-acetylpenicillamine]: the “NO donor remaining within the CarboSil polymer films” value in data set [1] (pH 7.4) was determined as 0.25±0.17%. Further, the “cumulative leaching from films, SNAP leaching study” value in data set [2] came out at 1.307±0.536 μmol cm-2. In addition, the “reduction in planktonic bacteria in solution” value (“reduction … in solution” for short) in data set [3] (setting [6]) is given as 96.2±1.15%. Further, in data set [3], the inhibition at 500 µM was found to be 99.2 ± 0.762%. In addition, in data set [4], the “stabilized passive NO release rate of solutions” value was “slightly higher rate of NO release than SNAPicillin solutions”. In addition, the “zone of inhibition against S. aureus, in words” value in the data set on S. aureus is “only killing bacteria directly in contact with the film”.

As to `[N]=O` [NO, nitric oxide], the “concentration of NO able to trigger the biofilm dispersal mechanism” value in the data set with biofilms was 450 pM.

On to `CC(=O)NC(C(=O)NC(C(=O)NC1C(=O)N2C1SC(C)(C)C2C(=O)O)c1ccccc1)C(C)(C)SN=O` (stereo not drawn) [SNAPicillin], for which the “NO donor remaining within the CarboSil polymer films” value in data set [1] was 21.9±1.72%. The “NO flux from blended films” value in data set [1] (equimolar blend in CarboSil films, PBS (pH 7.4) with EDTA, 37° C., 7 days) is “higher NO fluxes at every time point when compared to SNAP”. Further, the “cumulative leaching from films, SNAP leaching study” value in data set [2] was found to be 0.051±0.10 μmol cm-2. Further, the “reduction of viable bacteria adhered on the films (biofilm)” value in data set [3] (setting [7]) came to 99.9±0.18%. In data set [3] (setting [6]), the “reduction … in solution” value is 99.5±0.264%. Further, the “cumulative leaching from films, ampicillin study” value in data set [5] was 0.043±0.003 μmol cm^−2. The “ZOI values against S. aureus” value in the data set with S. aureus worked out at 34.0±1.40 mm.

As for `CC1(C)S[C@@H]2[C@H](NC(=O)[C@H](N)c3ccccc3)C(=O)N2[C@H]1C(=O)O` [ampicillin], the “reduction … in solution” value in data set [3] (setting [6]) came to 90.0±1.13%. In addition, the inhibition at 500 µM in data set [3] (setting [7]) was found to be 28.9 ± 5.89%. In data set [5], the “cumulative leaching from films, ampicillin study” value came to 0.087±0.003 μmol cm^−2. In addition, the “ZOI values against S. aureus” value in the data set with S. aureus came out at 34.5±1.50 mm.
